Source: ChEMBL document CHEMBL1142390, “A set of phosphatase-inert "molecular rulers" to probe for bivalent mannose 6-phosphate ligand-receptor interactions” (Bioorg Med Chem Lett, 2008)
pIC50: −log10 of the molar value.

Columns and labels:
[1] = biological target: Cation-independent mannose-6-phosphate receptor (Bos taurus) (UniProt P08169); assay: Displacement of pentamannosyl phosphate bovine serum albumin from M6P/IGF2R relative to M6P
[2] = biological target: Cation-independent mannose-6-phosphate receptor (Bos taurus) (UniProt P08169); assay: Displacement of pentamannosyl phosphate bovine serum albumin from M6P/IGF2R

Chain of Cation-independent mannose-6-phosphate receptor (Bos taurus) (P08169 whole entry, looked up): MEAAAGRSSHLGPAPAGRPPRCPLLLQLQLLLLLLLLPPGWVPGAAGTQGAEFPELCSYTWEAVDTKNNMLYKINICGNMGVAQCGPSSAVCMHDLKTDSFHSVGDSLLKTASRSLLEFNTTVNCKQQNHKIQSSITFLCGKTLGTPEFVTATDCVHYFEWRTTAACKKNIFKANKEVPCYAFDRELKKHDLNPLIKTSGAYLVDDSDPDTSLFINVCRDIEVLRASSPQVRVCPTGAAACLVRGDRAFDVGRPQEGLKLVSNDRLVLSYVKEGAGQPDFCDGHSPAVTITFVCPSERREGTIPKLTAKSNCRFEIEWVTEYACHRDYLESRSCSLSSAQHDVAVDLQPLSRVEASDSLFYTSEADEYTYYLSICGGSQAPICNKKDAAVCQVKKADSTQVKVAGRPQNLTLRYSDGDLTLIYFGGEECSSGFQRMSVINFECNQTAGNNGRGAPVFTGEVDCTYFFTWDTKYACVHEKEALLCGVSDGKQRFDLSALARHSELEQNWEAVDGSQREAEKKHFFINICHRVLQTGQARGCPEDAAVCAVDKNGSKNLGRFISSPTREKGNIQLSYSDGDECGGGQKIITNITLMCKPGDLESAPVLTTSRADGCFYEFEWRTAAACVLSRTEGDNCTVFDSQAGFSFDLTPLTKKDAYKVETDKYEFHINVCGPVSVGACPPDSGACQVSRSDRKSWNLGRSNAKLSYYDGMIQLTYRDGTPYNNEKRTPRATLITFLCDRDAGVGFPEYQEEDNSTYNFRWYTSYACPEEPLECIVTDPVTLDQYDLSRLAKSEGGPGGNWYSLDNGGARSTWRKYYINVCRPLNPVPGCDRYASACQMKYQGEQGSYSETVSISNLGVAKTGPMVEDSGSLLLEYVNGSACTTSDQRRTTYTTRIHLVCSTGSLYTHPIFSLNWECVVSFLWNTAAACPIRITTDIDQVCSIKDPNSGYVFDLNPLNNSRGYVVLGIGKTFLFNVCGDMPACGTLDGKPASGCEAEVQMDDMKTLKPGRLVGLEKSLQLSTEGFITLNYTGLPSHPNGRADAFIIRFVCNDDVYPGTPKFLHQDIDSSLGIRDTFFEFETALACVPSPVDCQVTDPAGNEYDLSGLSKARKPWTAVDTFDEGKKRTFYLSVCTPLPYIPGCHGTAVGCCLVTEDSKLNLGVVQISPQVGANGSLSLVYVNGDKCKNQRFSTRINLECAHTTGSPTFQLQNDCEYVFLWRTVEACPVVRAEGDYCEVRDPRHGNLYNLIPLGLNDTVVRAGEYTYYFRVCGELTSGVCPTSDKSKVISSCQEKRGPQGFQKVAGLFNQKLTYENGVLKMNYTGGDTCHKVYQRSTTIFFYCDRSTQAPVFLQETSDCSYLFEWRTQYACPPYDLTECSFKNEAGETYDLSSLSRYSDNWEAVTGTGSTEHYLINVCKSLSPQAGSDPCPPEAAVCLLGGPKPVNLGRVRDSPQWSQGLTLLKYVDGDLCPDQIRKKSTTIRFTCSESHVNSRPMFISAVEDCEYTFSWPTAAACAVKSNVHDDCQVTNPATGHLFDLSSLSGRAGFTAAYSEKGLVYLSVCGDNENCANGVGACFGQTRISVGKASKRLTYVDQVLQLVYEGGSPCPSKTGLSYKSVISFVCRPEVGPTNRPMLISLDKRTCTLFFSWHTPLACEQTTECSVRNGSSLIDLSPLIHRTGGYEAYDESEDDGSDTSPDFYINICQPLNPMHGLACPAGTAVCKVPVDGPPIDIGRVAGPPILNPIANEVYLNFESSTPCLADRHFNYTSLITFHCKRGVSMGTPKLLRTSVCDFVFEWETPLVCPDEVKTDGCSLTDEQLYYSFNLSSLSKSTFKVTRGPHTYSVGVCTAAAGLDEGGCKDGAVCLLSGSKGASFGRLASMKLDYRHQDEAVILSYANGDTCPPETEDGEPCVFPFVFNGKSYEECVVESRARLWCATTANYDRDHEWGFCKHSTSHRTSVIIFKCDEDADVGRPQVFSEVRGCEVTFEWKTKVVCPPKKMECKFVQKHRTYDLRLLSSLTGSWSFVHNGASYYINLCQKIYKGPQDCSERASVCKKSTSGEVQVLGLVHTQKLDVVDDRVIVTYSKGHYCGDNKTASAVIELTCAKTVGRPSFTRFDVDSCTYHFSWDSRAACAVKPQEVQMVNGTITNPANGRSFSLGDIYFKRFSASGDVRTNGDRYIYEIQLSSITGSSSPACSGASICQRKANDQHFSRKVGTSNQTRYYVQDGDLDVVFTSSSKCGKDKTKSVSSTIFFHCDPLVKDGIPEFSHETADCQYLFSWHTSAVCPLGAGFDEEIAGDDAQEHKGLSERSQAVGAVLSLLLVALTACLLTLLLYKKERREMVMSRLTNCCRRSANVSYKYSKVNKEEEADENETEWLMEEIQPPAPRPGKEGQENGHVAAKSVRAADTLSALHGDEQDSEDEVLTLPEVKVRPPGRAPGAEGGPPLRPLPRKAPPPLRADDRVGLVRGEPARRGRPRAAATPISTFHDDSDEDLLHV

Row | Compound | relative binding affinity (RBA) [1] | pIC50 [2]
1 | O=P(O)(O)OC[C@H]1OC(O)[C@@H](O)[C@@H](O)[C@@H]1O (stereo not given in full) | – | 4.94
2 | CC(=O)N[C@H](C(=O)N[C@@H](CCCCNC(=O)c1ccccc1N)C(=O)N[C@H](C(N)=O)[C@@H](C)O[C@H]1O[C@H](CO)[C@@H](O)[C@H](O)[C@@H]1O[C@H]1O[C@H](COP(=O)(O)O)[C@@H](O)[C@H](O)[C@@H]1O)[C@@H](C)O[C@H]1O[C@H](CO)[C@@H](O)[C@H](O)[C@@H]1O[C@H]1O[C@H](COP(=O)(O)O)[C@@H](O)[C@H](O)[C@@H]1O | 2890 | 7.05
3 | O=P(O)(O)OC[C@H]1O[C@H](OCCCCCCCCCCCCO[C@H]2O[C@H](COP(=O)(O)O)[C@@H](O)[C@H](O)[C@@H]2O)[C@@H](O)[C@@H](O)[C@@H]1O | 3.02 | 5.43
4 | O=P(O)(O)OC[C@H]1O[C@@H](O)[C@H](O)[C@@H](O)[C@@H]1O | – | < 5.00

Further compounds by rising pIC50 [2], results first:

Row | relative binding affinity (RBA) [1] | pIC50 [2] | Compound
5 | 13 | 4.70 | CC(=O)N[C@H](C(=O)N[C@@H](CCCCN)C(=O)N[C@H](C(N)=O)[C@@H](C)O[C@H]1O[C@H](CO)[C@@H](O)[C@H](O)[C@@H]1O[C@H]1O[C@H](COP(=O)(O)O)[C@@H](O)[C@H](O)[C@@H]1O)[C@@H](C)O[C@H]1O[C@H](CO)[C@@H](O)[C@H](O)[C@@H]1O[C@H]1O[C@H](COP(=O)(O)O)[C@@H](O)[C@H](O)[C@@H]1O
6 | 144 | 5.74 | CC(=O)NCCCC[C@H](NC(=O)[C@@H](NC(C)=O)[C@@H](C)O[C@H]1O[C@H](CO)[C@@H](O)[C@H](O)[C@@H]1O[C@H]1O[C@H](COP(=O)(O)O)[C@@H](O)[C@H](O)[C@@H]1O)C(=O)N[C@H](C(N)=O)[C@@H](C)O[C@H]1O[C@H](CO)[C@@H](O)[C@H](O)[C@@H]1O[C@H]1O[C@H](COP(=O)(O)O)[C@@H](O)[C@H](O)[C@@H]1O
